# US11498899B2, “Nitrone herbicides” (FMC Corporation, priority 2016, dated 2022)
# Columns and labels:
# [1] = test system: barnyardgrass (Echinochloa crus-galli); experiment: Test A preemergence, visual injury rating 0-100 (0 no effect, 100 complete control); type: in vivo; settings: for Barnyardgrass plant response rating (0 to 100 scale): 125 g ai/ha; for Barnyardgrass plant response rating: 500 g ai/ha, 0 to 100 scale
# Source text: (§1) Seeds of plant species selected from barnyardgrass (Echinochloa crus-galli), kochia (Kochia scoparia), ragweed (common ragweed, Ambrosia elatior), ryegrass, Italian (Italian ryegrass, Lolium multiflorum), foxtail, giant (giant foxtail, Setaria faberii), foxtail, green (green foxtail, Setaria viridis), and pigweed (Amaranthus retroflexus) were planted into a blend of loam soil and sand and treated preemergence with a directed soil spray using test chemicals formulated in a non-phytotoxic solvent mixture which included a surfactant.
# (§2) At the same time, plants selected from these weed species and also wheat (Triticum aestivum), corn (Zea mays), blackgrass (Alopecurus myosuroides), and galium (catchweed bedstraw, Galium aparine) were planted in pots containing the same blend of loam soil and sand and treated with postemergence applications of test chemicals formulated in the same manner. Plants ranged in height from 2 to 10 cm and were in the one- to two-leaf stage for the postemergence treatment. Treated plants and untreated controls were maintained in a greenhouse for approximately 10 days, after which time all treated plants were compared to untreated controls and visually evaluated for injury. […] A dash (-) response means no test result.
# [2] = test system: foxtail, giant (giant foxtail, Setaria faberii); experiment: Test A preemergence, visual injury rating 0-100; type: in vivo; settings: for Foxtail, Giant plant response rating (0 to 100 scale): 125 g ai/ha; for Foxtail, Giant plant response rating: 500 g ai/ha, 0 to 100 scale
# Source text: as §1, §2
# [3] = test system: pigweed (Amaranthus retroflexus); experiment: Test A preemergence, visual injury rating 0-100; type: in vivo; settings: for Pigweed plant response rating (0 to 100 scale): 125 g ai/ha; for Pigweed plant response rating: 500 g ai/ha, 0 to 100 scale
# Source text: as §1, §2
# [4] = test system: ryegrass, Italian (Italian ryegrass, Lolium multiflorum); experiment: Test A preemergence, visual injury rating 0-100; type: in vivo; settings: for Ryegrass, Italian plant response rating (0 to 100 scale): 125 g ai/ha; for Ryegrass, Italian plant response rating: 500 g ai/ha, 0 to 100 scale
# Source text: as §1, §2
# kochia (Kochia scoparia) [5] = experiment: Test A preemergence, visual injury rating 0-100; type: in vivo; settings: for Kochia plant response rating (0 to 100 scale): 125 g ai/ha; for Kochia plant response rating: 500 g ai/ha, 0 to 100 scale
# Source text: as §1, §2
# [6] = test system: ragweed (common ragweed, Ambrosia elatior); experiment: Test A preemergence, visual injury rating 0-100; type: in vivo; settings: for Ragweed plant response rating (0 to 100 scale): 125 g ai/ha; for Ragweed plant response rating: 500 g ai/ha, 0 to 100 scale
# Source text: as §1, §2
# [7] = test system: ducksalad (Heteranthera limosa); experiment: Test B flooded paddy test, visual rating 0-100; settings: Flood, 250 g ai/ha, applied to paddy water, rated after 13 to 15 days
# rice (Oryza sativa) = experiment: Test B flooded paddy test, visual rating 0-100 (0 no effect, 100 complete control); settings: Flood, 250 g ai/ha, applied to paddy water, rated after 13 to 15 days
# [8] = test system: foxtail, giant (giant foxtail, Setaria faberii); experiment: Test A postemergence, visual injury rating 0-100; type: in vivo; settings: 0 to 100 scale
# Source text: as §1, §2
# [9] = test system: pigweed (Amaranthus retroflexus); experiment: Test A postemergence, visual injury rating 0-100; type: in vivo; settings: 0 to 100 scale
# Source text: as §1, §2
# [10] = test system: ryegrass, Italian (Italian ryegrass, Lolium multiflorum); experiment: Test A postemergence, visual injury rating 0-100; type: in vivo; settings: 0 to 100 scale
# Source text: as §1, §2
# [11] = test system: wheat (Triticum aestivum); experiment: Test A postemergence, visual injury rating 0-100; type: in vivo; settings: 0 to 100 scale
# Source text: as §1, §2
# corn (Zea mays) = experiment: Test A postemergence, visual injury rating 0-100; type: in vivo; settings: 0 to 100 scale
# Source text: as §1, §2
# [12] = test system: galium (catchweed bedstraw, Galium aparine); experiment: Test A postemergence, visual injury rating 0-100; type: in vivo; settings: 0 to 100 scale
# Source text: as §1, §2
# kochia (Kochia scoparia) [13] = experiment: Test A postemergence, visual injury rating 0-100; type: in vivo; settings: 0 to 100 scale
# Source text: as §1, §2
# [14] = test system: ragweed (common ragweed, Ambrosia elatior); experiment: Test A postemergence, visual injury rating 0-100; type: in vivo; settings: 0 to 100 scale
# Source text: as §1, §2
# [15] = test system: blackgrass (Alopecurus myosuroides); experiment: Test A postemergence, visual injury rating 0-100; type: in vivo; settings: 0 to 100 scale
# Source text: as §1, §2
# [16] = test system: barnyardgrass (Echinochloa crus-galli); experiment: Test A postemergence, visual injury rating 0-100; type: in vivo; settings: 0 to 100 scale
# Source text: as §1, §2
# [17] = test system: barnyardgrass (Echinochloa crus-galli); experiment: Test B flooded paddy test, visual rating 0-100; settings: Flood, 250 g ai/ha, applied to paddy water, rated after 13 to 15 days
Structure (SMILES),Barnyardgrass plant response rating (0 to 100 scale) [1],Barnyardgrass plant response rating [1],"Foxtail, Giant plant response rating (0 to 100 scale) [2]","Foxtail, Giant plant response rating [2]",Pigweed plant response rating (0 to 100 scale) [3],Pigweed plant response rating [3],"Ryegrass, Italian plant response rating (0 to 100 scale) [4]","Ryegrass, Italian plant response rating [4]",Kochia plant response rating (0 to 100 scale) (kochia (Kochia scoparia) [5]),Kochia plant response rating (kochia (Kochia scoparia) [5]),Ragweed plant response rating (0 to 100 scale) [6],Ragweed plant response rating [6],Ducksalad plant response rating (0 to 100 scale) [7],Rice plant response rating (0 to 100 scale) (rice (Oryza sativa)),"Foxtail, Giant plant response rating ([8]; 125 g ai/ha)","Foxtail, Giant plant response rating ([8]; 500 g ai/ha)",Pigweed plant response rating ([9]; 125 g ai/ha),Pigweed plant response rating ([9]; 500 g ai/ha),"Ryegrass, Italian plant response rating ([10]; 125 g ai/ha)","Ryegrass, Italian plant response rating ([10]; 500 g ai/ha)",also measured
CC1=[N+]([O-])C(C)(C(=O)Nc2cccc(F)c2F)C(c2ccc(C(F)(F)F)cc2)C1 (racemic) [Compound 1],90,100,100,100,20,80,0,60,70,90,0,30,70,50,0,80,20,60,0,20,Wheat plant response rating ([11]; 125 g ai/ha): 30; Wheat plant response rating ([11]; 500 g ai/ha): 70; Corn plant response rating (corn (Zea mays); 125 g ai/ha): 0; Corn plant response rating (corn (Zea mays); 500 g ai/ha): 70; Galium plant response rating ([12]; 125 g ai/ha): 80; Galium plant response rating ([12]; 500 g ai/ha): 80; Kochia plant response rating (kochia (Kochia scoparia) [13]; 125 g ai/ha): 0; Kochia plant response rating (kochia (Kochia scoparia) [13]; 500 g ai/ha): 70; Ragweed plant response rating ([14]; 125 g ai/ha): 0; Ragweed plant response rating ([14]; 500 g ai/ha): 30; Blackgrass plant response rating ([15]; 125 g ai/ha): 20; Blackgrass plant response rating ([15]; 500 g ai/ha): 70; Barnyardgrass plant response rating ([16]; 125 g ai/ha): 70; Barnyardgrass plant response rating ([16]; 500 g ai/ha): 90; Barnyardgrass plant response rating (0 to 100 scale) [17]: 70
CC1=[N+]([O-])C(C(=O)Nc2cccc(F)c2F)C(c2cccc(Cl)c2)C1 (racemic) [Compound 3],100,100,100,100,20,70,20,50,30,90,30,70,100,0,80,90,0,20,0,70,Wheat plant response rating ([11]; 125 g ai/ha): 30; Wheat plant response rating ([11]; 500 g ai/ha): 80; Corn plant response rating (corn (Zea mays); 125 g ai/ha): 40; Corn plant response rating (corn (Zea mays); 500 g ai/ha): 90; Galium plant response rating ([12]; 125 g ai/ha): 60; Galium plant response rating ([12]; 500 g ai/ha): 70; Kochia plant response rating (kochia (Kochia scoparia) [13]; 125 g ai/ha): 20; Kochia plant response rating (kochia (Kochia scoparia) [13]; 500 g ai/ha): 60; Ragweed plant response rating ([14]; 500 g ai/ha): 50; Blackgrass plant response rating ([15]; 125 g ai/ha): 30; Blackgrass plant response rating ([15]; 500 g ai/ha): 80; Barnyardgrass plant response rating ([16]; 125 g ai/ha): 80; Barnyardgrass plant response rating ([16]; 500 g ai/ha): 90; Barnyardgrass plant response rating (0 to 100 scale) [17]: 80
CC1=[N+]([O-])C(C(=O)Nc2cccc(F)c2F)C(c2ccc3c(c2)OCO3)C1 (racemic) [Compound 4],100,100,100,100,20,90,0,20,0,80,0,100,40,10,40,90,0,20,0,40,Wheat plant response rating ([11]; 125 g ai/ha): 0; Wheat plant response rating ([11]; 500 g ai/ha): 60; Corn plant response rating (corn (Zea mays); 125 g ai/ha): 0; Corn plant response rating (corn (Zea mays); 500 g ai/ha): 60; Galium plant response rating ([12]; 125 g ai/ha): 30; Galium plant response rating ([12]; 500 g ai/ha): 60; Kochia plant response rating (kochia (Kochia scoparia) [13]; 125 g ai/ha): 0; Kochia plant response rating (kochia (Kochia scoparia) [13]; 500 g ai/ha): 50; Ragweed plant response rating ([14]; 125 g ai/ha): 0; Ragweed plant response rating ([14]; 500 g ai/ha): 50; Blackgrass plant response rating ([15]; 125 g ai/ha): 0; Blackgrass plant response rating ([15]; 500 g ai/ha): 20; Barnyardgrass plant response rating ([16]; 125 g ai/ha): 50; Barnyardgrass plant response rating ([16]; 500 g ai/ha): 90; Barnyardgrass plant response rating (0 to 100 scale) [17]: 60
CC1=[N+]([O-])C(C(=O)Nc2cccc(F)c2F)C(c2cccc(F)c2)C1 (racemic) [Compound 8],90,90,90,90,20,40,0,40,0,50,0,80,100,0,90,90,0,20,0,50,Wheat plant response rating ([11]; 125 g ai/ha): 0; Wheat plant response rating ([11]; 500 g ai/ha): 50; Corn plant response rating (corn (Zea mays); 125 g ai/ha): 0; Corn plant response rating (corn (Zea mays); 500 g ai/ha): 0; Galium plant response rating ([12]; 125 g ai/ha): 20; Galium plant response rating ([12]; 500 g ai/ha): 60; Kochia plant response rating (kochia (Kochia scoparia) [13]; 125 g ai/ha): 0; Kochia plant response rating (kochia (Kochia scoparia) [13]; 500 g ai/ha): 40; Ragweed plant response rating ([14]; 125 g ai/ha): 0; Ragweed plant response rating ([14]; 500 g ai/ha): 0; Blackgrass plant response rating ([15]; 125 g ai/ha): 0; Blackgrass plant response rating ([15]; 500 g ai/ha): 30; Barnyardgrass plant response rating ([16]; 125 g ai/ha): 50; Barnyardgrass plant response rating ([16]; 500 g ai/ha): 90; Barnyardgrass plant response rating (0 to 100 scale) [17]: 85
